{"source": "EPA's CvTdb concentration-time database", "key": {"[1]": {"tested_on": "Mouse", "test": "concentration in plasma after dosing", "conditions": "dosed: 2-Hydroxy-4-methoxybenzophenone, 100 mg/kg, oral, Male, B6C3F1"}, "[2]": {"tested_on": "Rat", "test": "concentration in plasma after dosing", "conditions": "0.25 h; dosed: 2-Hydroxy-4-methoxybenzophenone; 500 mg/kg; oral; Male; F344"}, "[3]": {"tested_on": "Mouse", "test": "concentration in plasma after dosing", "conditions": "2.5 min; dosed: 2-Hydroxy-4-methoxybenzophenone; 250 mg/kg; oral; Female; B6C3F1"}, "[4]": {"tested_on": "Mouse", "test": "concentration in plasma after dosing", "conditions": "2 h; dosed: 2-Hydroxy-4-methoxybenzophenone; 50 mg/kg; iv; Female; B6C3F1"}, "[5]": {"tested_on": "Rat", "test": "concentration in plasma after dosing", "conditions": "0.25 h; dosed: 2-Hydroxy-4-methoxybenzophenone; 500 mg/kg; oral; Male; F344", "remark": "listed apart in the source"}, "[6]": {"tested_on": "Rat", "test": "concentration in plasma after dosing", "conditions": "dosed: 2-Hydroxy-4-methoxybenzophenone, 100 mg/kg, oral, Female, F344"}, "[7]": {"tested_on": "Mouse", "test": "concentration in plasma after dosing", "conditions": "10 min; dosed: 2-Hydroxy-4-methoxybenzophenone; 250 mg/kg; oral; Male; B6C3F1"}, "[8]": {"tested_on": "Mouse", "test": "concentration in plasma after dosing", "conditions": "10 min; dosed: 2-Hydroxy-4-methoxybenzophenone; 500 mg/kg; oral; Female; B6C3F1"}, "[9]": {"tested_on": "Rat", "test": "concentration in brain after dosing", "conditions": "2 min; dosed: alpha-Thujone; 50 mg/kg; oral; Male; Harlan Sprague Dawley"}, "[10]": {"tested_on": "Rat", "test": "concentration in plasma after dosing", "conditions": "2 min; dosed: alpha-Thujone; 25 mg/kg; oral; Male; Harlan Sprague Dawley"}, "[11]": {"tested_on": "Rat", "test": "concentration in plasma after dosing", "conditions": "10 min; dosed: alpha-Thujone; 25 mg/kg; oral; Male; Harlan Sprague Dawley"}, "[12]": {"tested_on": "Rat", "test": "concentration in brain after dosing", "conditions": "12 h; dosed: alpha-Thujone; 50 mg/kg; oral; Male; Harlan Sprague Dawley"}, "[13]": {"tested_on": "Rat", "test": "concentration in brain after dosing", "conditions": "1.5 h; dosed: alpha-Thujone; 25 mg/kg; oral; Male; Harlan Sprague Dawley"}, "[14]": {"tested_on": "Rat", "test": "concentration in brain after dosing", "conditions": "3 h; dosed: alpha-Thujone; 50 mg/kg; oral; Female; Harlan Sprague Dawley"}, "[15]": {"tested_on": "Rat", "test": "concentration in plasma after dosing", "conditions": "6 h; dosed: alpha-Thujone; 25 mg/kg; oral; Male; Harlan Sprague Dawley"}, "[16]": {"tested_on": "Rat", "test": "concentration in plasma after dosing", "conditions": "1.5 h; dosed: alpha-Thujone; 25 mg/kg; oral; Male; Harlan Sprague Dawley"}, "[17]": {"tested_on": "Rat", "test": "concentration in plasma after dosing", "conditions": "1.5 h; dosed: alpha-Thujone; 25 mg/kg; oral; Male; Harlan Sprague Dawley", "remark": "listed apart in the source"}, "[18]": {"tested_on": "Rat", "test": "concentration in plasma after dosing", "conditions": "3 h; dosed: alpha-Thujone; 25 mg/kg; oral; Female; Harlan Sprague Dawley"}, "[19]": {"tested_on": "Rat", "test": "concentration in kidney after dosing", "conditions": "528 h; dosed: Perfluorohexane-1-sulphonic acid – potassium salt; 16 mg/kg; oral; Female; F344"}, "[20]": {"tested_on": "Rat", "test": "concentration in brain after dosing", "conditions": "12 h; dosed: Perfluorohexane-1-sulphonic acid – potassium salt; 16 mg/kg; oral; Female; F344"}, "[21]": {"tested_on": "Rat", "test": "concentration in liver after dosing", "conditions": "48 h; dosed: Perfluorohexane-1-sulphonic acid – potassium salt; 16 mg/kg; oral; Female; Harlan Sprague Dawley"}, "[22]": {"tested_on": "Rat", "test": "concentration in kidney after dosing", "conditions": "6 h; dosed: Perfluorohexane-1-sulphonic acid – potassium salt; 16 mg/kg; oral; Female; F344"}, "[23]": {"tested_on": "Rat", "test": "concentration in brain after dosing", "conditions": "6 h; dosed: Perfluorohexane-1-sulphonic acid – potassium salt; 16 mg/kg; oral; Female; Harlan Sprague Dawley"}, "[24]": {"tested_on": "Rat", "test": "concentration in liver after dosing", "conditions": "12 h; dosed: Perfluorohexane-1-sulphonic acid – potassium salt; 16 mg/kg; oral; Female; F344"}, "[25]": {"tested_on": "Rat", "test": "concentration in brain after dosing", "conditions": "192 h; dosed: Perfluorohexane-1-sulphonic acid – potassium salt; 16 mg/kg; oral; Female; F344"}, "[26]": {"tested_on": "Rat", "test": "concentration in plasma after dosing", "conditions": "dosed: Pyridine, 25 mg/kg, oral, Male, F344"}, "[27]": {"tested_on": "Rat", "test": "concentration in plasma after dosing", "conditions": "2 min; dosed: Pyridine; 10 mg/kg; oral; Male; F344"}, "[28]": {"tested_on": "Rat", "test": "concentration in plasma after dosing", "conditions": "2 h; dosed: Pyridine; 10 mg/kg; iv; Male; F344"}, "[29]": {"tested_on": "Rat", "test": "concentration in plasma after dosing", "conditions": "dosed: Methyleugenol, 37 mg/kg, oral, Female, F344/N"}, "[30]": {"tested_on": "Rat", "test": "concentration in plasma after dosing", "conditions": "dosed: Methyleugenol, 37 mg/kg, oral, Male, F344/N"}, "[31]": {"tested_on": "Rat", "test": "concentration in plasma after dosing", "conditions": "dosed: Methyleugenol, 37 mg/kg, iv, Female, F344"}, "[32]": {"tested_on": "Rat", "test": "concentration in plasma after dosing", "conditions": "dosed: Methyleugenol, 37 mg/kg, iv, Male, F344"}, "[33]": {"tested_on": "Mouse", "test": "concentration in plasma after dosing", "conditions": "dosed: 2,4-Dichlorophenoxyacetic acid, 1.0 mg/kg, iv, Male, B6C3F1"}, "[34]": {"tested_on": "Rat", "test": "concentration in plasma after dosing", "conditions": "1.5 h; dosed: Primidone; 30 mg/kg; oral; Female; F344"}, "[35]": {"tested_on": "Rat", "test": "concentration in plasma after dosing", "conditions": "6 h; dosed: Primidone; 80 mg/kg; oral; Female; F344"}, "[36]": {"tested_on": "Rat", "test": "concentration in plasma after dosing", "conditions": "0.5 h; dosed: Primidone; 130 mg/kg; oral; Male; Harlan Sprague Dawley"}}, "data": [{"smiles": "O=C(c1ccccc1)c1ccc(O)cc1O", "note": "[2,4-Dihydroxybenzophenone]", "values": [{"measurement": "concentration in plasma", "setting": "[1]; 2.5 min", "value": 64.5, "unit": "ng/mL"}, {"measurement": "concentration in plasma", "setting": "[1]; 10 min", "value": 161, "unit": "ng/mL"}, {"measurement": "concentration in plasma", "setting": "[1]; 0.25 h", "value": 352, "unit": "ng/mL"}, {"measurement": "concentration in plasma", "setting": "[1]; 2 h", "value": 173, "unit": "ng/mL"}, {"measurement": "concentration in plasma", "setting": "[1]; 3 h", "value": 105, "unit": "ng/mL"}, {"measurement": "concentration in plasma", "setting": "[2]", "value": 713, "unit": "ng/mL"}, {"measurement": "concentration in plasma", "setting": "[3]", "value": 53.1, "unit": "ng/mL"}, {"measurement": "concentration in plasma", "setting": "[4]", "value": 46.1, "unit": "ng/mL"}, {"measurement": "concentration in plasma", "setting": "[5]", "value": 103, "unit": "ng/mL"}, {"measurement": "concentration in plasma", "setting": "[6]; 0.25 h", "value": 123, "unit": "ng/mL"}, {"measurement": "concentration in plasma", "setting": "[6]; 4 h", "value": 77.4, "unit": "ng/mL"}, {"measurement": "concentration in plasma", "setting": "[7]", "value": 392, "unit": "ng/mL"}, {"measurement": "concentration in plasma", "setting": "[8]", "value": 4230, "unit": "ng/mL"}]}, {"smiles": "CC(C)[C@]12CC(=O)[C@H](C)[C@H]1C2", "note": "[alpha-Thujone]", "values": [{"measurement": "concentration in brain", "setting": "[9]", "value": 385, "unit": "ng/g"}, {"measurement": "concentration in plasma", "setting": "[10]", "value": 17.8, "unit": "ng/mL"}, {"measurement": "concentration in plasma", "setting": "[11]", "value": 464, "unit": "ng/mL"}, {"measurement": "concentration in brain", "setting": "[12]", "value": 107, "unit": "ng/g"}, {"measurement": "concentration in brain", "setting": "[13]", "value": 525, "unit": "ng/g"}, {"measurement": "concentration in brain", "setting": "[14]", "value": 858, "unit": "ng/g"}, {"measurement": "concentration in plasma", "setting": "[15]", "value": 83.5, "unit": "ng/mL"}, {"measurement": "concentration in plasma", "setting": "[16]", "value": 186, "unit": "ng/mL"}, {"measurement": "concentration in plasma", "setting": "[17]", "value": 95.4, "unit": "ng/mL"}, {"measurement": "concentration in plasma", "setting": "[18]", "value": 180, "unit": "ng/mL"}]}, {"smiles": "O=S(=O)([O-])C(F)(F)C(F)(F)C(F)(F)C(F)(F)C(F)(F)C(F)(F)F.[K+]", "note": "[Perfluorohexane-1-sulphonic acid – potassium salt]", "values": [{"measurement": "concentration in kidney", "setting": "[19]", "value": 8530, "unit": "ng/g"}, {"measurement": "concentration in brain", "setting": "[20]", "value": 1770, "unit": "ng/g"}, {"measurement": "concentration in liver", "setting": "[21]", "value": 13300, "unit": "ng/g"}, {"measurement": "concentration in kidney", "setting": "[22]", "value": 39300, "unit": "ng/g"}, {"measurement": "concentration in brain", "setting": "[23]", "value": 1100, "unit": "ng/g"}, {"measurement": "concentration in liver", "setting": "[24]", "value": 70300, "unit": "ng/g"}, {"measurement": "concentration in brain", "setting": "[25]", "value": 834, "unit": "ng/g"}]}, {"smiles": "c1ccncc1", "note": "[Pyridine]", "values": [{"measurement": "concentration in plasma", "setting": "[26]; 0.5 h", "value": 15300, "unit": "ng/mL"}, {"measurement": "concentration in plasma", "setting": "[26]; 6 h", "value": 15100, "unit": "ng/mL"}, {"measurement": "concentration in plasma", "setting": "[27]", "value": 453, "unit": "ng/mL"}, {"measurement": "concentration in plasma", "setting": "[28]", "value": 1320, "unit": "ng/mL"}]}, {"smiles": "C=CCc1ccc(OC)c(OC)c1", "note": "[Methyleugenol]", "values": [{"measurement": "concentration in plasma", "setting": "[29]; 5 min", "value": 211, "unit": "ng/mL"}, {"measurement": "concentration in plasma", "setting": "[29]; 5 h", "value": 16.9, "unit": "ng/mL"}, {"measurement": "concentration in plasma", "setting": "[30]; 0.5 h", "value": 293, "unit": "ng/mL"}, {"measurement": "concentration in plasma", "setting": "[30]; 3 h", "value": 21.9, "unit": "ng/mL"}, {"measurement": "concentration in plasma", "setting": "[31]; 2 min", "value": 43100, "unit": "ng/mL"}, {"measurement": "concentration in plasma", "setting": "[31]; 6 h", "value": 68, "unit": "ng/mL"}, {"measurement": "concentration in plasma", "setting": "[32]; 5 min", "value": 28800, "unit": "ng/mL"}, {"measurement": "concentration in plasma", "setting": "[32]; 3 h", "value": 226, "unit": "ng/mL"}]}, {"smiles": "O=C(O)COc1ccc(Cl)cc1Cl", "note": "[2,4-Dichlorophenoxyacetic acid]", "values": [{"measurement": "concentration in plasma", "setting": "[33]; 2.5 min", "value": 8150, "unit": "ng/mL"}, {"measurement": "concentration in plasma", "setting": "[33]; 10 min", "value": 8340, "unit": "ng/mL"}, {"measurement": "concentration in plasma", "setting": "[33]; 0.5 h", "value": 6070, "unit": "ng/mL"}, {"measurement": "concentration in plasma", "setting": "[33]; 3 h", "value": 446, "unit": "ng/mL"}]}, {"smiles": "CCC1(c2ccccc2)C(=O)NCNC1=O", "note": "[Primidone]", "values": [{"measurement": "concentration in plasma", "setting": "[34]", "value": 20600, "unit": "ng/mL"}, {"measurement": "concentration in plasma", "setting": "[35]", "value": 43900, "unit": "ng/mL"}, {"measurement": "concentration in plasma", "setting": "[36]", "value": 55800, "unit": "ng/mL"}]}]}
